Literature values as cited in PMC7993281 (Clinical and Translational Science, 2020).

Test system: plasma GlcCer
Conditions: healthy subjects; cited from earlier work

Structure (SMILES): CC(C)(NC(=O)O[C@@H]1CN2CCC1CC2)c1csc(-c2ccc(F)cc2)n1 [venglustat]
- decrease of plasma GlcCer: up to 80%
